This passage reports Activity results from ChEMBL document CHEMBL3045984, “Resistance to HPPD-inhibiting herbicides in a population of waterhemp (Amaranthus tuberculatus) from Illinois, United States” (2011).

What all share (format): functional
The subject of assay [1] is Amaranthus tuberculatus. The assay can be described thus: Herbicidal activity against Amaranthus tuberculatus biotype MCR 16 assessed as visual injury at 560 g/ha applied as spray after 14 days under green house conditions relative to untreated control.
Assay [2] concerns Amaranthus tuberculatus. The assay can be described thus: Herbicidal activity against Amaranthus tuberculatus biotype MCR 15 assessed as visual injury at 560 g/ha applied as spray after 14 days under green house conditions relative to untreated control.
The test system of assay [3] is Amaranthus tuberculatus. The assay can be described thus: Herbicidal activity against Amaranthus tuberculatus biotype MCR 12 assessed as visual injury at 560 g/ha applied as spray after 14 days under green house conditions relative to untreated control.
Assay [4] deals with Amaranthus tuberculatus. Nature of the assay: Herbicidal activity against Amaranthus tuberculatus biotype ACR assessed as visual injury at 560 g/ha applied as spray after 14 days under green house conditions relative to untreated control.
Assay [5] has as its system Amaranthus tuberculatus. Nature of the assay: Herbicidal activity against Amaranthus tuberculatus biotype WCS assessed as visual injury at 560 g/ha applied as spray after 14 days under green house conditions relative to untreated control.
For assay [6], the system named is Amaranthus tuberculatus. Nature of the assay: Herbicidal activity against Amaranthus tuberculatus biotype MCR 16 assessed as visual injury at 560 g/ha applied as spray after 7 days under green house conditions relative to untreated control.
Assay [7] relates to Amaranthus tuberculatus. Nature of the assay: Herbicidal activity against Amaranthus tuberculatus biotype MCR 15 assessed as visual injury at 560 g/ha applied as spray after 7 days under green house conditions relative to untreated control.
The subject of assay [8] is Amaranthus tuberculatus. The assay can be described thus: Herbicidal activity against Amaranthus tuberculatus biotype MCR 12 assessed as visual injury at 560 g/ha applied as spray after 7 days under green house conditions relative to untreated control.
Assay [9] concerns Amaranthus tuberculatus. The assay can be described thus: Herbicidal activity against Amaranthus tuberculatus biotype ACR assessed as visual injury at 560 g/ha applied as spray after 7 days under green house conditions relative to untreated control.
Assay [10] has as its system Amaranthus tuberculatus. The assay can be described thus: Herbicidal activity against Amaranthus tuberculatus biotype WCS assessed as visual injury at 560 g/ha applied as spray after 7 days under green house conditions relative to untreated control.
Assay [11] relates to Amaranthus tuberculatus. The assay can be described thus: Herbicidal activity against Amaranthus tuberculatus biotype MCR 16 assessed as visual injury at 560 g/ha applied as spray after 21 days under green house conditions relative to untreated control.
Assay [12] concerns Amaranthus tuberculatus. Nature of the assay: Herbicidal activity against Amaranthus tuberculatus biotype MCR 15 assessed as visual injury at 560 g/ha applied as spray after 21 days under green house conditions relative to untreated control.
The test system of assay [13] is Amaranthus tuberculatus. Nature of the assay: Herbicidal activity against Amaranthus tuberculatus biotype MCR 12 assessed as visual injury at 560 g/ha applied as spray after 21 days under green house conditions relative to untreated control.
Assay [14] has as its system Amaranthus tuberculatus. Nature of the assay: Herbicidal activity against Amaranthus tuberculatus biotype ACR assessed as visual injury at 560 g/ha applied as spray after 21 days under green house conditions relative to untreated control.
The test system of assay [15] is Amaranthus tuberculatus. The assay can be described thus: Herbicidal activity against Amaranthus tuberculatus biotype WCS assessed as visual injury at 560 g/ha applied as spray after 21 days under green house conditions relative to untreated control.
Assay [16] concerns Amaranthus tuberculatus. The assay can be described thus: Herbicidal activity against Amaranthus tuberculatus biotype MCR 15 assessed as visual injury at 92 g/ha applied as spray after 14 days under green house conditions relative to untreated control.
Assay [17] has as its system Amaranthus tuberculatus. Nature of the assay: Herbicidal activity against Amaranthus tuberculatus biotype MCR 12 assessed as visual injury at 92 g/ha applied as spray after 14 days under green house conditions relative to untreated control.
The test system of assay [18] is Amaranthus tuberculatus. The assay can be described thus: Herbicidal activity against Amaranthus tuberculatus biotype ACR assessed as visual injury at 92 g/ha applied as spray after 14 days under green house conditions relative to untreated control.
Assay [19] relates to Amaranthus tuberculatus. Nature of the assay: Herbicidal activity against Amaranthus tuberculatus biotype MCR 12 assessed as visual injury at 92 g/ha applied as spray after 7 days under green house conditions relative to untreated control.
The test system of assay [20] is Amaranthus tuberculatus. Nature of the assay: Herbicidal activity against Amaranthus tuberculatus biotype WCS assessed as visual injury at 92 g/ha applied as spray after 21 days under green house conditions relative to untreated control.
Assay [21] concerns Amaranthus tuberculatus. Nature of the assay: Herbicidal activity against Amaranthus tuberculatus biotype MCR 16 assessed as visual injury at 92 g/ha applied as spray after 14 days under green house conditions relative to untreated control.
Assay [22] has as its system Amaranthus tuberculatus. The assay can be described thus: Herbicidal activity against Amaranthus tuberculatus biotype WCS assessed as visual injury at 92 g/ha applied as spray after 14 days under green house conditions relative to untreated control.
Assay [23] has as its system Amaranthus tuberculatus. The assay can be described thus: Herbicidal activity against Amaranthus tuberculatus biotype MCR 16 assessed as visual injury at 92 g/ha applied as spray after 7 days under green house conditions relative to untreated control.
For assay [24], the system named is Amaranthus tuberculatus. Nature of the assay: Herbicidal activity against Amaranthus tuberculatus biotype MCR 15 assessed as visual injury at 92 g/ha applied as spray after 7 days under green house conditions relative to untreated control.
Assay [25] has as its system Amaranthus tuberculatus. Nature of the assay: Herbicidal activity against Amaranthus tuberculatus biotype MCR 16 assessed as visual injury at 92 g/ha applied as spray after 21 days under green house conditions relative to untreated control.
Assay [26] relates to Amaranthus tuberculatus. Nature of the assay: Herbicidal activity against Amaranthus tuberculatus biotype MCR 15 assessed as visual injury at 92 g/ha applied as spray after 21 days under green house conditions relative to untreated control.
In assay [27] the test system is Amaranthus tuberculatus. The assay can be described thus: Herbicidal activity against Amaranthus tuberculatus biotype MCR 12 assessed as visual injury at 92 g/ha applied as spray after 21 days under green house conditions relative to untreated control.
Assay [28] deals with Amaranthus tuberculatus. Nature of the assay: Herbicidal activity against Amaranthus tuberculatus biotype ACR assessed as visual injury at 92 g/ha applied as spray after 21 days under green house conditions relative to untreated control.
The subject of assay [29] is Amaranthus tuberculatus. The assay can be described thus: Herbicidal activity against Amaranthus tuberculatus biotype ACR assessed as visual injury at 92 g/ha applied as spray after 7 days under green house conditions relative to untreated control.
The subject of assay [30] is Amaranthus tuberculatus. The assay can be described thus: Herbicidal activity against Amaranthus tuberculatus biotype WCS assessed as visual injury at 92 g/ha applied as spray after 7 days under green house conditions relative to untreated control.
In assay [31] the test system is Amaranthus tuberculatus. The assay can be described thus: Herbicidal activity against Amaranthus tuberculatus biotype MCR 15 assessed as visual injury at 18 g/ha applied as spray after 14 days under green house conditions relative to untreated control.
The test system of assay [32] is Amaranthus tuberculatus. The assay can be described thus: Herbicidal activity against Amaranthus tuberculatus biotype MCR 12 assessed as visual injury at 18 g/ha applied as spray after 14 days under green house conditions relative to untreated control.
Assay [33] deals with Amaranthus tuberculatus. The assay can be described thus: Herbicidal activity against Amaranthus tuberculatus biotype ACR assessed as visual injury at 18 g/ha applied as spray after 14 days under green house conditions relative to untreated control.
The test system of assay [34] is Amaranthus tuberculatus. Nature of the assay: Herbicidal activity against Amaranthus tuberculatus biotype MCR 12 assessed as visual injury at 18 g/ha applied as spray after 7 days under green house conditions relative to untreated control.
Assay [35] deals with Amaranthus tuberculatus. The assay can be described thus: Herbicidal activity against Amaranthus tuberculatus biotype ACR assessed as visual injury at 18 g/ha applied as spray after 7 days under green house conditions relative to untreated control.
Assay [36] has as its system Amaranthus tuberculatus. The assay can be described thus: Herbicidal activity against Amaranthus tuberculatus biotype WCS assessed as visual injury at 18 g/ha applied as spray after 21 days under green house conditions relative to untreated control.
Assay [37] relates to Amaranthus tuberculatus. Nature of the assay: Herbicidal activity against Amaranthus tuberculatus biotype MCR 16 assessed as visual injury at 18 g/ha applied as spray after 14 days under green house conditions relative to untreated control.
The subject of assay [38] is Amaranthus tuberculatus. Nature of the assay: Herbicidal activity against Amaranthus tuberculatus biotype WCS assessed as visual injury at 18 g/ha applied as spray after 14 days under green house conditions relative to untreated control.
Assay [39] has as its system Amaranthus tuberculatus. The assay can be described thus: Herbicidal activity against Amaranthus tuberculatus biotype MCR 16 assessed as visual injury at 18 g/ha applied as spray after 7 days under green house conditions relative to untreated control.
Assay [40] has as its system Amaranthus tuberculatus. Nature of the assay: Herbicidal activity against Amaranthus tuberculatus biotype MCR 15 assessed as visual injury at 18 g/ha applied as spray after 7 days under green house conditions relative to untreated control.
Assay [41] concerns Amaranthus tuberculatus. Nature of the assay: Herbicidal activity against Amaranthus tuberculatus biotype MCR 15 assessed as visual injury at 18 g/ha applied as spray after 21 days under green house conditions relative to untreated control.
The subject of assay [42] is Amaranthus tuberculatus. The assay can be described thus: Herbicidal activity against Amaranthus tuberculatus biotype MCR 12 assessed as visual injury at 18 g/ha applied as spray after 21 days under green house conditions relative to untreated control.
In assay [43] the test system is Amaranthus tuberculatus. Nature of the assay: Herbicidal activity against Amaranthus tuberculatus biotype ACR assessed as visual injury at 18 g/ha applied as spray after 21 days under green house conditions relative to untreated control.
For assay [44], the system named is Amaranthus tuberculatus. The assay can be described thus: Herbicidal activity against Amaranthus tuberculatus biotype WCS assessed as visual injury at 18 g/ha applied as spray after 7 days under green house conditions relative to untreated control.
Assay [45] deals with Amaranthus tuberculatus. The assay can be described thus: Herbicidal activity against Amaranthus tuberculatus biotype MCR 16 assessed as visual injury at 18 g/ha applied as spray after 21 days under green house conditions relative to untreated control.

In the case of `CCNc1nc(Cl)nc(NC(C)C)n1` [ATRAZINE], the Activity in assay [1] came out at 1%; in [2], 2%; in assay [3], 4%; in [4], 8%; in [5], 87%; in [6] it was 5%. The Activity was 5% in [7]; 7% in [8]; 14% in assay [9]; 83% in [10]; 1% in [11]; 1% in assay [12]. For the same compound, the Activity in assay [13] is recorded as 4%; in assay [14], 4%; in assay [15] it was 81%.
Consider `CS(=O)(=O)c1ccc(C(=O)C2C(=O)CCCC2=O)c(Cl)c1COCC(F)(F)F` [TEMBOTRIONE], for which the Activity in assay [16] turned out to be 34%; in assay [17], 30%; in assay [18], 91%; in assay [19] it was 40%; in assay [20], 100%; in assay [21] it was 46%. Besides, the Activity in assay [22] is 96%; in assay [23], 43%; in [24] it was 48%; in [25], 31%; in assay [26] it was 35%; in assay [27], 17%. Further, the Activity in assay [28] is listed as 94%; in [29], 56%; in assay [30] it was 84%.
As for `Cc1c(C(=O)c2cnn(C)c2O)ccc(S(C)(=O)=O)c1C1=NOCC1` [TOPRAMEZONE], the Activity in [31] came out at 59%; in assay [32], 42%; in assay [33], 93%; in assay [34] it was 41%; in assay [35], 69%; in [36], 100%. Moreover, the Activity in assay [37] is reported as 64%; in assay [38], 96%; in assay [39] it was 54%; in assay [40], 52%; in [41] it was 42%; in assay [42], 36%. The Activity in assay [43] is 96%; in assay [44] it was 84%; in [45], 58%.
